Reference: BindingDB's records for doi:10.1016/j.bmcl.2015.06.011 (Al-Zaytoonah University of Jordan, 2015)
pIC50: −log10 of the molar value.

Experiments:
[1] = Inhibition of PI3Kalpha H1047R mutant in human HCT116 cells assessed as cell growth inhibition after 24 hrs by MTT assay
[2] = Inhibition of PI3Kalpha in human HCT116 cells assessed as cell growth inhibition after 24 hrs by MTT assay

Structure (SMILES)	pIC50 [1]	pIC50 [2]
O=C(OC(C(=O)c1ccccc1)c1ccccc1)c1ccccc1F (stereo not drawn)	3.04	3.04
COc1ccc(C(=O)C(OC(=O)c2ccc(F)cc2)c2ccc(OC)cc2)cc1 (stereo not drawn)	2.55	2.55
O=C(OC(C(=O)c1ccccc1)c1ccccc1)c1ccc(Cl)cc1 (stereo not drawn)	3.14	3.14
O=C(OC(C(=O)c1ccccc1)c1ccccc1)c1ccccc1 (stereo not drawn)	2.58	2.58
COc1ccc(C(=O)C(O)c2ccc(OC)cc2)cc1 (stereo not drawn) [2-hydroxy-1,2-bis(4-methoxyphenyl)ethan-1-one]	2.93	2.93
O=C(c1ccccc1)C(O)c1ccccc1 (stereo not drawn)	2.67	2.67
O=C(OC(C(=O)c1ccccc1)c1ccccc1)c1cccc(F)c1 (stereo not drawn)	3.01	3.01
O=C(OC(C(=O)c1ccccc1)c1ccccc1)c1ccc(F)cc1 (stereo not drawn)	2.89	2.89
O=C(OC(C(=O)c1ccccc1)c1ccccc1)c1ccc([N+](=O)[O-])cc1 (stereo not drawn)	3.06	3.06
